The source of these data is paper PMC4319760, “Rapid Identification of α-Glucosidase Inhibitors from Phlomis tuberosa by Sepbox Chromatography and Thin-Layer Chromatography Bioautography” (PLoS ONE, 2015).

The structures appear in SMILES notation.

One data set relates to α-D-glucosidase. As to the kind of experiment: TLC bioautographic assay for α-glucosidase inhibitors. The following applies: S1 Fig, subfractions 20 μL, ethyl acetate fraction 5 mg/mL, acarbose 1 mg/mL, 4 μL, qualitative. It counts as biochemical. An excerpt: In the present work, a high-performance thin-layer chromatographic system (CAMAG, Switzerland) equipped with an automatic TLC Sampler 4 and a Reprostar 3 with a 12-bit charge-coupled device camera for photo-documentation and controlled by WinCATS-4 software was used. […] After migration of the samples with appropriate solvents or no migration, the plates were inspected under ultraviolet light (366 nm) and then subjected to bioautographic assay as described below.
TLC bioautographic assay: TLC bioautographic assay was carried out as described previously in terms of reaction principle and response system but with slight modifications. First, the concentration of α-glucosidase was reduced from 10 U/mL to 2.5 U/mL. Second, the plate was dipped into the reaction solutions (including the enzyme solution, the substrate solution, and the coloration solution), instead of being sprayed with them. Third, the conditions for enzyme incubation were changed from room temperature for 60 min to 37°C for 30 min. Briefly, α-D-glucosidase (750 U) was dissolved in 75 mL of buffer solution (10.25 g of sodium acetate in 250 mL with addition of 0.1 M acetic acid to pH 7.5). The stock solution was kept at -20°C. A stock solution of 25 mL was diluted with the same buffer solution to 100 mL as the enzyme solution, and a substrate solution of 1 mg/mL 2-naphthyl-α-D-glucopyranoside in ethanol was prepared. […]

Another data set addresses α-Glucosidase. The data set is described as follows: α-Glucosidase inhibitory activity assay (4-nitrophenyl α-glucopyranoside substrate, absorbance at 405 nm). The data set is classed as biochemical, Saccharomyces cerevisiae. The following applies: 0.26 U/mL enzyme, pH 6.8, 37°C; mean ± SEM, triplicate. As for the experimental part:
After incubation at 37°C for 10 min, 100 μL of the substrate, 4-nitrophenyl α-glucopyranoside (5 mM, in potassium phosphate buffer) was added to the mixture. The enzymatic reaction was allowed to proceed at 37°C for 20 min and stopped by addition of 100 μL of 0.2 M NaCO3. 4-Nitrophenol absorptions were subsequently measured at 405 nm using a spectrophotometer. […] The IC50 value was defined as the concentration of α-glucosidase inhibitor required to inhibit 50% of α-glucosidase activity under the assay conditions. Experiments were performed in triplicate, and all results are expressed as mean ± SEM.

On the set-up of data set [1]: method as in PMID 23850835, PMID 18460146. The following applies: previous toxicity studies; ref [23]–[25]; cited from earlier work.

`C[C@H]1O[C@H](O[C@H]2[C@H](O)[C@@H](O)[C@@H](O[C@H]3[C@H](O)[C@@H](O)C(O)O[C@@H]3CO)O[C@@H]2CO)[C@H](O)[C@@H](O)[C@@H]1N[C@H]1C=C(CO)[C@@H](O)[C@H](O)[C@H]1O` (some centres unmarked) [Acarbose, acarbose]: in the data set with α-D-glucosidase, the “α-glucosidase inhibitory activity in bioautographic chromatogram (white spots), screening” value is “produced white spots”. The compound `CC1(C(=O)O)CCCC2(C)c3c(C=O)c4c(c(O)c3CCC12)COC4=O` (centres unmarked) [Compound 1, 14-hydroxyabieta-8,11,13-triene-11-carbaldehyde-18-oic-12-carboxy-13-(1-hydroxy-1-methylethyl)-lactone] had an IC50 at α-Glucosidase of 0.379 ± 0.016 mM. The same measure, in the same setting: in the case of `CC1(C(=O)O)CCCC2(C)c3cc4c(c(O)c3CCC12)COC4=O` (centres unmarked) [Compound 2, 14-hydroxyabieta-8,11,13-triene-17-oic-12-carboxy-13-(1-hydroxy-1-methylethyl)-lactone] it was 0.624 ± 0.026 mM; in that of `CC1=C(CCc2ccoc2)C2(C)CCCC(C)(CO)C2CC1` (centres unmarked) [Compound 4, 15,16-eposy-8,13(16),14-labdatrien-19-ol], 0.067 ± 0.003 mM; in that of `CC1=C(CCc2ccoc2)C2(C)CCCC(C)(C(=O)O)C2CC1` (centres unmarked) [Compound 5, phlomisoic acid], 0.482 ± 0.019 mM.

`CC1=C(CCc2ccoc2)C2(C)CCCC(C)(C)C2CC1` (centres unmarked) [Compound 6, 15,16-eposy-8,13(16),14-labdatrien] had a 50% inhibitory concentration (IC50) at α-Glucosidase of 0.21 ± 0.01 mM.

On to `C[C@@H]1O[C@@H](O[C@@H]2[C@@H](O)[C@H](OCCc3ccc(O)c(O)c3)O[C@H](CO)[C@H]2OC(=O)/C=C/c2ccc(O)c(O)c2)[C@H](O)[C@H](O)[C@H]1O` [Compound 7, acteoside], for which half-maximal inhibition at α-Glucosidase (IC50) required 0.518 ± 0.017 mM. Besides, in data set [1], the toxicity entry is on record as “nontoxic”. At α-Glucosidase, `C[C@@H]1O[C@@H](O[C@@H]2[C@@H](O)[C@H](OCCc3ccc(O)c(O)c3)O[C@H](COC(=O)/C=C/c3ccc(O)c(O)c3)[C@H]2O)[C@H](O)[C@H](O)[C@H]1O` [Compound 8, isoacteoside] returned an IC50 of 1.2 ± 0.032 mM. With `COc1ccc(-c2cc(=O)c3c(O)cc(OC4OC(COC5OC(C)C(O)C(O)C5O)C(O)C(O)C4O)cc3o2)cc1` (centres unmarked) [Compound 10, acacetin-7-rutinoside], the toxicity entry in data set [1] is recorded as “nontoxic”.

As to `O=c1cc(-c2ccc(O)c(O)c2)oc2cc(O)cc(O)c12` [Compound 11, luteolin], half-maximal inhibition against α-Glucosidase (IC50) was put at 0.428 ± 0.018 mM. `CC1OC(Oc2c(-c3ccc(O)c(O)c3)oc3cc(O)cc(O)c3c2=O)C(O)C(O)C1O` (centres unmarked) [Compound 12, quercetin-3-rhamnoside] yielded an IC50 on α-Glucosidase of 0.562 ± 0.021 mM. Further, in data set [1], the toxicity result is given as “nontoxic”. At α-Glucosidase, `CCCCCCCc1c(O)cc(CC=C(C)C)c(O)c1C=O` [Compound 17, flavoglaucin] yielded an IC50 of 0.229 ± 0.017 mM. `CCCCC/C=C/c1c(O)cc(CC=C(C)C)c(O)c1C=O` [Compound 18, tetrahydroauroglaucin]: it took 0.283 ± 0.013 mM to reach half-maximal inhibition at α-Glucosidase (IC50).

As for `CCC/C=C/C=C/c1c(O)cc(CC=C(C)C)c(O)c1C=O` [Compound 19, dihydroauroglaucin], at α-Glucosidase, inhibition was half-maximal at 0.255 ± 0.013 mM (IC50). The same measure, in the same setting: next, `CCCCCc1cc2c(C=O)c(O)c(CC=C(C)C)cc2o1` [Compound 20, 2-(2′,3-epoxy-1′-heptenyl)-6-hydroxy-5-(3″-methyl-2″-butenyl) benzaldehyde]: 0.371 ± 0.015 mM.

As a reminder, the IC50 is the point on the concentration scale where inhibition reaches its midpoint. High values mean lower potency, low ones higher potency.
